This is an account of results in US8129371B2, “Thienopyrimidine and pyrazolopyrimidine compounds and their use as mTOR kinase and PI3 kinase inhibitors” (Wyeth LLC, priority 2007, dated 2012).

Like-named read-outs stand apart in the source and are kept apart here. Where only a bound is given, the exact number is not on record here.

By IC50 is commonly meant the concentration that inhibits the measured activity by half.

The test system of one assay is breast line MDA468. Briefly: In vitro cell culture growth assay (MTS), MDA468. The class given is cell-based. As to conditions: Homo sapiens, 72 h, MDA468 cells, three days after drug treatment. The method in brief:
(§1)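 Growth is reported as percent of vehicle-treated control grown in the same plate, with viability determined by metabolic conversion of MTS dye and absorbance read at 490 nm. Compounds were applied one day after plating and left for three days.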

A further assay addresses T1, Human mTOR (FLAG-TOR) (Homo sapiens, UniProt P42345).
T1 construct: FLAG
Briefly: Human mTOR kinase assay with purified enzyme, DELFIA format. The class given is biochemical. The method in brief:
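Purified FLAG-mTOR in HEPES pH 7.4 buffer with 10 mM MnCl2 was preincubated with inhibitor and reacted 2 h at room temperature with His6-S6K substrate, then stopped with EDTA/EGTA. Phospho-T389 S6K detected by DELFIA with Eu-labelled antibody (40 ng/mL) after plate capture; inhibition computed from signal.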

The subject of another assay is prostate line LNCap. Briefly: In vitro cell culture growth assay (MTS), LNCap. The class given is cell-based. The settings on record: Homo sapiens, 72 h, LNCap cells, three days after drug treatment. Summed up:
as §1

Assay [1] deals with T2, PI3K (Homo sapiens, UniProt P48736).
T2 construct: PI3 Kinase γ IC50; other: PI3 Kinase γ; other: PI3 Kinase γ isoform, fluorescence polarization
T2 sequence (P48736 whole entry, canonical isoform): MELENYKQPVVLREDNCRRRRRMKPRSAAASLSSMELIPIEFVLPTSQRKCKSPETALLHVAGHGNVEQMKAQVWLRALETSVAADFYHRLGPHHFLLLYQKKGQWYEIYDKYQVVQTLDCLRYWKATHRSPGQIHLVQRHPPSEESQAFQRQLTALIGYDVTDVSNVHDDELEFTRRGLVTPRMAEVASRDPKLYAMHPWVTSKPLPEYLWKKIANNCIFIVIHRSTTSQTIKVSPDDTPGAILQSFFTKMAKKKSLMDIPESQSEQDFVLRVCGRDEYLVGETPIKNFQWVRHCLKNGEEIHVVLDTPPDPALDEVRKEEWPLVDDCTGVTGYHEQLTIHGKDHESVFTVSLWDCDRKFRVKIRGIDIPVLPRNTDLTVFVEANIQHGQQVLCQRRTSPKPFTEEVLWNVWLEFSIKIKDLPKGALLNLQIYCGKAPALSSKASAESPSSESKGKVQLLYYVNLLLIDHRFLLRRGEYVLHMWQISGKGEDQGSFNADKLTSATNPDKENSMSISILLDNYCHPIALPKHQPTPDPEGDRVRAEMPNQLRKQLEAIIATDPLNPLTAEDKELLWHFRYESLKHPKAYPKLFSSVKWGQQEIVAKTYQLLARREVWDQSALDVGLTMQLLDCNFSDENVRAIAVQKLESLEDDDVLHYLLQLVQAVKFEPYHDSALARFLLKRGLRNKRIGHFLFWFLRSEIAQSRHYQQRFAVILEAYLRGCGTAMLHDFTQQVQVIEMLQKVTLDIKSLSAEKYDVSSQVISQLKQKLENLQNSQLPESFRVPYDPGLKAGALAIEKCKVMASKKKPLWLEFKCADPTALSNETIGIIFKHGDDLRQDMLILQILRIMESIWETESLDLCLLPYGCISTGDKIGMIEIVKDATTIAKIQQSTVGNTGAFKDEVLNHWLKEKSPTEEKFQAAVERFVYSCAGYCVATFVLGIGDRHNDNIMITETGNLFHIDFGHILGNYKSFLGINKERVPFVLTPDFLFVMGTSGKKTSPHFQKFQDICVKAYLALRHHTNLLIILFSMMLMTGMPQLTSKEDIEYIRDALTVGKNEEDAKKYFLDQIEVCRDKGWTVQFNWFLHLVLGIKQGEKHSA
Briefly: Fluorescence polarization assay for PI3K. The class given is biochemical. The method in brief:
(§2)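 PI3K was preincubated with compound (final DMSO 1%), and the reaction was started with PIP2/ATP substrate and run 30–60 min. It was stopped with a detector mix giving 10 nM red probe and 70 nM GST-GRP.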
Background: In fluorescence polarisation assays a small probe gives low polarisation when free and higher when bound to something large.

In assay [2] the target is T3, PI3K (Homo sapiens, UniProt P42336).
T3 construct: PI3 Kinase α IC50; other: PI3 Kinase α; other: PI3 Kinase α isoform, fluorescence polarization
T3 sequence (P42336 whole entry, canonical isoform): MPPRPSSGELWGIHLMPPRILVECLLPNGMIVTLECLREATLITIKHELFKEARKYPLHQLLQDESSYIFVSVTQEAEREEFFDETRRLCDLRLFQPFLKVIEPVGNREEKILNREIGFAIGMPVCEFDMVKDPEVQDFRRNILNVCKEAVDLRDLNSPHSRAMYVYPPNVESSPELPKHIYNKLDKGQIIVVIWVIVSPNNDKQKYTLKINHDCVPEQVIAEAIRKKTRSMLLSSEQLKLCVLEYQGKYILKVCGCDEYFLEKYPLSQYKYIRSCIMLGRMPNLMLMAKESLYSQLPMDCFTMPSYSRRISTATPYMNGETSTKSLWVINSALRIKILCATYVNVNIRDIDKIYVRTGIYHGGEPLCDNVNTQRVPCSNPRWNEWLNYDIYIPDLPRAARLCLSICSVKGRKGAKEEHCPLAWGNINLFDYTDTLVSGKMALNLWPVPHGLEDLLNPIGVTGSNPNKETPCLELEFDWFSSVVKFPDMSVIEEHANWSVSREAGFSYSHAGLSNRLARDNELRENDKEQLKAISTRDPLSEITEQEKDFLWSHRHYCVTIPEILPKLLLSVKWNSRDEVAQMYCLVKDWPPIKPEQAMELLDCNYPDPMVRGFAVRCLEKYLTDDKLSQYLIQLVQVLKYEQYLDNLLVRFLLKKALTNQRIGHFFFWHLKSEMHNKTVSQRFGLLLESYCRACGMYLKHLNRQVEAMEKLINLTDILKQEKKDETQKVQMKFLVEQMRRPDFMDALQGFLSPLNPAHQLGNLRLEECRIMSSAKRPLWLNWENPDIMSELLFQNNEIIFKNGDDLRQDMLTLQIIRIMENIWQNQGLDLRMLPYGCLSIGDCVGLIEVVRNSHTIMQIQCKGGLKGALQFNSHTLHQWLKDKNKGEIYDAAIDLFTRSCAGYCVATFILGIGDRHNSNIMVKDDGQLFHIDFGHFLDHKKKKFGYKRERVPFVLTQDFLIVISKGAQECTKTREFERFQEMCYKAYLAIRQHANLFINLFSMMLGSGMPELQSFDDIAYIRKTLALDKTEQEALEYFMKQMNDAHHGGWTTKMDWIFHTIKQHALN
Briefly: Fluorescence polarization assay for PI3K. The class given is biochemical. Summed up: as §2

The mark [3] stands for this setting: PI3 Kinase γ, read-out: PI3 Kinase γ IC50.
[4] abbreviates: PI3 Kinase α, read-out: PI3 Kinase α IC50.

For the compound `CN(C)c1cccc(OC(=O)Nc2ccc(-c3nc(N4CC5CCC(C4)O5)c4cnn(CC(F)(F)F)c4n3)cc2)c1` [Example 256, 3-(dimethylamino)phenyl {4-[4-(8-oxa-3-azabicyclo[3.2.1]oct-3-yl)-1-(2,2,2-trifluoroethyl)-1H-pyrazolo[3,4-d]pyrimidin-6-yl]phenyl}carbamate], the half-inhibitory concentration (IC50) is 18000 nM in the assay on breast line MDA468; 195 nM against Human mTOR (FLAG-TOR); 3500 nM in the assay with prostate line LNCap; above 10000 nM on PI3K [1]; above 10000 nM at PI3K [2].
As to `CN(C)c1cccc(NC(=O)Nc2ccc(-c3nc(N4CC5CCC(C4)O5)c4cnn(CC(F)(F)F)c4n3)cc2)c1` [Example 257, 1-[3-(dimethylamino)phenyl]-3-{4-[4-(8-oxa-3-azabicyclo[3.2.1]oct-3-yl)-1-(2,2,2-trifluoroethyl)-1H-pyrazolo[3,4-d]pyrimidin-6-yl]phenyl}urea], the IC50 with breast line MDA468 is 3 nM; against Human mTOR (FLAG-TOR), 1.8 nM; in the assay with prostate line LNCap (LNCaP), below 1 nM; at PI3K [1] (setting [3]) it was 4240 nM; on PI3K [2] (setting [4]) it was 344 nM.
Turning to `O=C(Nc1ccc(CCO)cc1)Nc1ccc(-c2nc(N3CC4CCC(C3)O4)c3cnn(CC(F)(F)F)c3n2)cc1` [Example 260, 1-[4-(2-hydroxyethyl)phenyl]-3-{4-[4-(8-oxa-3-azabicyclo[3.2.1]oct-3-yl)-1-(2,2,2-trifluoroethyl)-1H-pyrazolo[3,4-d]pyrimidin-6-yl]phenyl}urea], the IC50 was below 1 nM in the assay with breast line MDA468; 0.111 nM against Human mTOR (FLAG-TOR); below 1 nM in the assay on prostate line LNCap (LNCaP); 440 nM at PI3K [1] (setting [3]); 98 nM on PI3K [2] (setting [4]).
For `CN1CCN(c2ccc(NC(=O)Nc3ccc(-c4nc(N5CC6CCC(C5)O6)c5cnn(CC(F)(F)F)c5n4)cc3)cn2)CC1` [Example 262, 1-[6-(4-methylpiperazin-1-yl)pyridin-3-yl]-3-{4-[4-(8-oxa-3-azabicyclo[3.2.1]oct-3-yl)-1-(2,2,2-trifluoroethyl)-1H-pyrazolo[3,4-d]pyrimidin-6-yl]phenyl}urea], the IC50 in the assay with breast line MDA468 came to 5 nM; on Human mTOR (FLAG-TOR) it was 0.515 nM; in the assay on prostate line LNCap (LNCaP), 1 nM; on PI3K [1] (setting [3]), 1360 nM; on PI3K [2] (setting [4]), 191 nM.
The corresponding values for `O=C(Nc1ccc(OCCO)cc1)Nc1ccc(-c2nc(N3CC4CCC(C3)O4)c3cnn(CC(F)(F)F)c3n2)cc1` [Example 263, 1-[4-(2-hydroxyethoxy)phenyl]-3-{4-[4-(8-oxa-3-azabicyclo[3.2.1]oct-3-yl)-1-(2,2,2-trifluoroethyl)-1H-pyrazolo[3,4-d]pyrimidin-6-yl]phenyl}urea] are 5 nM, 0.215 nM, below 1 nM, 10400 nM and 147 nM.
In the case of `O=C(Nc1ccc(-c2nc(N3CC4CCC(C3)O4)c3cnn(C4CCN(Cc5ccccc5)CC4)c3n2)cc1)OCCO` [Example 264, 2-hydroxyethyl {4-[1-(1-benzylpiperidin-4-yl)-4-(8-oxa-3-azabicyclo[3.2.1]oct-3-yl)-1H-pyrazolo[3,4-d]pyrimidin-6-yl]phenyl}carbamate], the IC50 in the assay on breast line MDA468 stood at 700 nM; against Human mTOR (FLAG-TOR), 2.9 nM; in the assay on prostate line LNCap (LNCaP), 38 nM; on PI3K [1] (setting [3]) it was 8840 nM; at PI3K [2] (setting [4]), 1690 nM.
The corresponding values for `O=C(Nc1ccc(-c2nc(N3CC4CCC(C3)O4)c3cnn(C4CCN(CC(F)(F)F)CC4)c3n2)cc1)NC1CC1` [Example 265, 1-cyclopropyl-3-(4-{4-(8-oxa-3-azabicyclo[3.2.1]oct-3-yl)-1-[1-(2,2,2-trifluoroethyl)piperidin-4-yl]-1H-pyrazolo[3,4-d]pyrimidin-6-yl}phenyl)urea] are 700 nM, 1.2 nM, 18 nM, above 10000 nM and 3470 nM.
The corresponding values for `O=C(Nc1ccc(-c2nc(N3C4CCC3COC4)c3cnn(CC(F)(F)F)c3n2)cc1)OCCO` [Example 266, 2-hydroxyethyl {4-[4-(3-oxa-8-azabicyclo[3.2.1]oct-8-yl)-1-(2,2,2-trifluoroethyl)-1H-pyrazolo[3,4-d]pyrimidin-6-yl]phenyl}carbamate] are 180 nM, 0.615 nM, 27 nM, above 10000 nM and 2720 nM.
The corresponding values for `CNC(=O)Nc1ccc(-c2nc(N3C4CCC3COC4)c3cnn(CC(F)(F)F)c3n2)cc1` [Example 267, 1-methyl-3-{4-[4-(3-oxa-8-azabicyclo[3.2.1]oct-8-yl)-1-(2,2,2-trifluoroethyl)-1H-pyrazolo[3,4-d]pyrimidin-6-yl]phenyl}urea] are 40 nM, 0.565 nM, 9 nM, 9000 nM and 1370 nM.
Regarding `O=C(Nc1ccc(-c2nc(N3C4CCC3COC4)c3cnn(CC(F)(F)F)c3n2)cc1)Nc1cccnc1` [Example 268, 1-{4-[4-(3-oxa-8-azabicyclo[3.2.1]oct-8-yl)-1-(2,2,2-trifluoroethyl)-1H-pyrazolo[3,4-d]pyrimidin-6-yl]phenyl}-3-pyridin-3-ylurea], the IC50 is 3 nM in the assay with breast line MDA468; 0.2 nM against Human mTOR (FLAG-TOR); below 1 nM with prostate line LNCap (LNCaP); 3010 nM on PI3K [1] (setting [3]); 227 nM at PI3K [2] (setting [4]).
Turning to `O=C(Nc1ccc(CO)cc1)Nc1ccc(-c2nc(N3C4CCC3COC4)c3cnn(CC(F)(F)F)c3n2)cc1` [Example 269, 1-[4-(hydroxymethyl)phenyl]-3-{4-[4-(3-oxa-8-azabicyclo[3.2.1]oct-8-yl)-1-(2,2,2-trifluoroethyl)-1H-pyrazolo[3,4-d]pyrimidin-6-yl]phenyl}urea], the IC50 was below 1 nM in the assay with breast line MDA468; 0.079 nM on Human mTOR (FLAG-TOR); below 1 nM with prostate line LNCap (LNCaP); 2130 nM on PI3K [1] (setting [3]); 117 nM on PI3K [2] (setting [4]).
In the case of `CN1CCN(c2ccc(NC(=O)Nc3ccc(-c4nc(N5C6CCC5COC6)c5cnn(CC(F)(F)F)c5n4)cc3)cc2)CC1` [Example 270, 1-[4-(4-methylpiperazin-1-yl)phenyl]-3-{4-[4-(3-oxa-8-azabicyclo[3.2.1]oct-8-yl)-1-(2,2,2-trifluoroethyl)-1H-pyrazolo[3,4-d]pyrimidin-6-yl]phenyl}urea], the IC50 in the assay with breast line MDA468 is 1 nM; on Human mTOR (FLAG-TOR), 0.52 nM; in the assay with prostate line LNCap (LNCaP), below 1 nM; on PI3K [1] (setting [3]) it was 9500 nM; at PI3K [2] (setting [4]), 371 nM.
The corresponding values for `O=C(Nc1ccc(-c2nc(N3C4CCC3COC4)c3cnn(CC(F)(F)F)c3n2)cc1)NC1CC1` [Example 271, 1-cyclopropyl-3-{4-[4-(3-oxa-8-azabicyclo[3.2.1]oct-8-yl)-1-(2,2,2-trifluoroethyl)-1H-pyrazolo[3,4-d]pyrimidin-6-yl]phenyl}urea] are 80 nM, 0.355 nM, 7 nM, 9000 nM and 3680 nM.
On to `O=C(Nc1ccc(CCO)cc1)Nc1ccc(-c2nc(N3C4CCC3COC4)c3cnn(CC(F)(F)F)c3n2)cc1` [Example 272, 1-[4-(2-hydroxyethyl)phenyl]-3-{4-[4-(3-oxa-8-azabicyclo[3.2.1]oct-8-yl)-1-(2,2,2-trifluoroethyl)-1H-pyrazolo[3,4-d]pyrimidin-6-yl]phenyl}urea], for which the IC50 in the assay with breast line MDA468 was 1 nM; on Human mTOR (FLAG-TOR) it was 0.106 nM; with prostate line LNCap (LNCaP) it was below 1 nM; at PI3K [1] (setting [3]) it was 1150 nM; at PI3K [2] (setting [4]) it was 132 nM.
